Experiments:
[1] = molecular target: T1, Peroxisome proliferator-activated receptor gamma (Mus musculus) (UniProt P37238); assay: Displacement of [3H]rosiglitazone from mouse PPARgamma receptor at 10 uM by scintillation proximation assay
T1 sequence (whole entry): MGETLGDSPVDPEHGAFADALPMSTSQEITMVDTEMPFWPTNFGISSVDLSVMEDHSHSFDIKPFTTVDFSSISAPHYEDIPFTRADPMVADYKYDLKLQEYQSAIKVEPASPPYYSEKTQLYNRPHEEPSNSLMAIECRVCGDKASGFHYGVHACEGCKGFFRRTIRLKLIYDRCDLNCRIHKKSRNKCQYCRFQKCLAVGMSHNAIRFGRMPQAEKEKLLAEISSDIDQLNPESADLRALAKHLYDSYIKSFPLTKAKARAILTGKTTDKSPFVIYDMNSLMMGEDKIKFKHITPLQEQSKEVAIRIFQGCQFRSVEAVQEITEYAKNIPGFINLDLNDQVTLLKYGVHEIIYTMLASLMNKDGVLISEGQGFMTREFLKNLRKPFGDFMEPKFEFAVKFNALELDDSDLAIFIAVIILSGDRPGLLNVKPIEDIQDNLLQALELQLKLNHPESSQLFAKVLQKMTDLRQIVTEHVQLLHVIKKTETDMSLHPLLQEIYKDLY

[2] = molecular target: T2, Peroxisome proliferator-activated receptor gamma (Mus musculus, UniProt P37238); assay: Displacement of [3H]rosiglitazone from mouse PPARgamma receptor by scintillation proximation assay
T2 sequence (P37238 whole entry): T1 sequence (whole entry)

Row | SMILES | inhibition [1] [%] | IC50 [2] [nM]
1 | O=C1NC(=O)C(=Cc2ccc(OCCOc3ccc(Br)cc3)cc2)C(=O)N1 | < 20 | 
2 | CC(C)c1ccc(OCCCOc2ccc(C=C3C(=O)NC(=O)NC3=O)cc2)cc1 | < 20 | 
3 | Cc1ccc(OCCOc2cccc(C=C3C(=O)NC(=O)NC3=O)c2)cc1 |  | 800
4 | O=C1NC(=O)C(=Cc2ccc(OCCN3c4ccccc4Oc4ccccc43)cc2)C(=O)N1 |  | 500
5 | COc1ccc(OCCOc2ccc(C=C3C(=O)NC(=O)NC3=O)cc2)cc1 |  | 200
6 | N#Cc1ccc(OCCOc2ccc(C=C3C(=O)NC(=O)NC3=O)cc2)cc1 |  | 200
7 | Cc1ccc(OCCOc2ccc(C=C3C(=O)NC(=O)NC3=O)cc2)cc1 | < 20 | 
8 | O=C1NC(=O)C(=Cc2ccc(OCCOc3ccc4ccccc4c3)cc2)C(=O)N1 | < 20 | 
9 | O=C1NC(=O)C(=Cc2ccc(Oc3ccccc3)cc2)C(=O)N1 |  | 100
10 | N#Cc1ccc(OCCCOc2ccc(C=C3C(=O)NC(=O)NC3=O)cc2)cc1 | < 20 | 
11 | O=C1NC(=O)C(=Cc2ccc(OCCOc3ccccn3)cc2)C(=O)N1 | < 20 | 
12 | O=C1NC(=O)C(=Cc2ccc(OCCOc3ccc([N+](=O)[O-])cc3)cc2)C(=O)N1 |  | 2500
13 | O=C1NC(=O)C(=Cc2ccc(OCCn3c4ccccc4c4ccccc43)cc2)C(=O)N1 | < 20 | 
14 | O=C1NC(=O)C(=Cc2ccc(OCCn3ccc4cccnc43)cc2)C(=O)N1 | < 20 | 
